Key:
[1] = tested on: GSPT1, Aiolos, Ikaros, CK1α, and SALL4; assay: cereblon neomorphic substrate degradation in Ramos and SK-N-DZ cells; type: cell-based; conditions: 1 μM
AR T878A/D891H = target: T1, AR T878A/D891H (Homo sapiens, UniProt P10275, D891H/T878A); assay: AR degradation in T-Rex-293 cell line, T878A/D891H; type: cell-based; conditions: T-Rex-293, ELISA
T1 construct: expressed in transfected cells; host or cells: T-REx-293
Excerpt: (§1) FIG. 3 is a graph showing Compound A's ability to degrade clinically relevant mutated forms AR.
(§2) To assess the ability of Compound A to degrade variants of the AR, vectors expressing wild-type AR or mutant AR proteins harboring clinically observed mutations in the ligand binding domain (13 with single amino acid changes or 4 with 2 amino acid changes) (Azad A. A., Volik S. V., Wyatt A. W., et al. Androgen receptor gene aberrations in circulating cell-free DNA: biomarkers of therapeutic resistance in castration-resistant prostate cancer. Clin Cancer Res. 2015; 21:2315-2324; Robinson D., Van Allen E. M., Wu Y. M., et al. Integrative clinical genomics of advanced prostate cancer. Cell. 2015; 161:1215-1228; Ledet E. M., Lilly M. B., Sonpavde G., et al. Comprehensive analysis of AR alterations in circulating tumor DNA from patients with advanced prostate cancer. Oncologist.

VCaP cells = assay: apoptosis in VCaP cells (CaspaseGlo); type: cell-based; conditions: Homo sapiens, CSS + 0.1 nM R1881, 72 hours, read-out: EC50, inducing apoptosis
Description: Intracellular prostate specific antigen (PSA) levels were determined using a PSA enzyme-linked immunosorbent assay (ELISA). […] The cell proliferation was determined using the CellTiter-Glo® assay. […] The CaspaseGlo® assay was carried out to measure the level of apoptosis in cells.
To evaluate the pharmacological effect of Compound A in vitro, PSA, cell proliferation, and apoptosis assays were carried out in VCaP cells.

prostate = assay: 10-day prostate involution study in rats; type: in vivo, rat; conditions: for Mean (±SEM) prostate weights: 10 days, intact rats
Description: Enzalutamide and Compound A were orally administered once daily at the indicated doses. After 10 days of treatment, the prostate tissue from each rat was isolated and weighed. Treatment groups (n=5 per group) were compared by one way ANOVA. Note: ns: not significant, *: p<0.05, **: p≤0.01.
To substantiate the on-target mechanism of Compound A, a prostate involution study was conducted in rats. […] Twenty-four hours after the last dose, the rats were euthanized, and the prostate organs were isolated and weighed.

AR D891H = target: T2, AR D891H (Homo sapiens, UniProt P10275, D891H); assay: AR degradation in T-Rex-293 cell line, D891H (western blot); type: cell-based; conditions: T-Rex-293, western blot
T2 construct: expressed in transfected cells; host or cells: T-REx-293
T2 sequence (P10275 whole entry D891H): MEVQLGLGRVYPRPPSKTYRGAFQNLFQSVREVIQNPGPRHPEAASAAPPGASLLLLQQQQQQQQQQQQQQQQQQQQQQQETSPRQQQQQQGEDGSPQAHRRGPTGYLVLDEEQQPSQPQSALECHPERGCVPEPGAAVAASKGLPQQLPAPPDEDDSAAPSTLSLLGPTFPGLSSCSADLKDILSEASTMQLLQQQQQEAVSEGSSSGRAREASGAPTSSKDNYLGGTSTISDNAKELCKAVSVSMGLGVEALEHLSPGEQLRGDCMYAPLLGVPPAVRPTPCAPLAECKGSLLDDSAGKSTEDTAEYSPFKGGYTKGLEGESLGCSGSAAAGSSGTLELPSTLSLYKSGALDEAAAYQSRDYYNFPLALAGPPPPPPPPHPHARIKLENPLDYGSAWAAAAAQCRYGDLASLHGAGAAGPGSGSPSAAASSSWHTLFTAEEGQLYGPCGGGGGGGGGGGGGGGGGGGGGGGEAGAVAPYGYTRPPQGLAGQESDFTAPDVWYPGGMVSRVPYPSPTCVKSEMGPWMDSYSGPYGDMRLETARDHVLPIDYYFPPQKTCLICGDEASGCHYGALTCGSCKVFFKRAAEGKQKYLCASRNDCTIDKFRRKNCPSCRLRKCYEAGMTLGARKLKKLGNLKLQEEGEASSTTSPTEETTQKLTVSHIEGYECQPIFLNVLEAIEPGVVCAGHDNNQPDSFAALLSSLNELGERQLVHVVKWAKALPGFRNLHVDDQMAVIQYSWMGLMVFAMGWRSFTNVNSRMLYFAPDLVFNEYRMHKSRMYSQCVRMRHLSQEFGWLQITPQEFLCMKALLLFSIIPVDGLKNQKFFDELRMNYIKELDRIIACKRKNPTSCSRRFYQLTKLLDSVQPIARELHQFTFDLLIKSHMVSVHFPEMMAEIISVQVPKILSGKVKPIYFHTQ
Excerpt: as §1, §2

T1 sequence (P10275 whole entry T878A/D891H): as the sequence (P10275 whole entry D891H) above, with T878A counted along it

With `COc1cc(O[C@H]2C(C)(C)[C@H](NC(=O)c3ccc(N4CCC(CN5CCN(c6ccc(C(=O)N[C@H]7CCC(=O)NC7=O)c(F)c6)CC5)CC4)cc3)C2(C)C)ccc1C#N` [Compound A, 4-(4-((1-(4-(((1R,3R)-3-(4-cyano-3-methoxyphenoxy)-2,2,4,4-tetramethylcyclobutyl)carbamoyl)phenyl)piperidin-4-yl)methyl)piperazin-1-yl)-N—((S)-2,6-dioxopiperidin-3-yl)-2-fluorobenzamide] as the compound, how does the “degradation of GSPT1, Aiolos, Ikaros, CK1α, and SALL4” value [1] read?
Its value is “did not lead to degradation”.

And the DC50 (AR T878A/D891H)?
Its DC50 is 3.4 nM.

What about the EC50 (VCaP cells) of the same compound?
Its EC50 is 8 nM.

And the “Mean (±SEM) prostate weights” value (prostate; 5 mg/kg/day orally)?
The value was 673+105 mg.

What about the “Mean (±SEM) prostate weights” value (prostate; 15 mg/kg/day orally) of the same compound?
Its value is 384 ± 47 mg.

What about the “Mean (±SEM) prostate weights” value (prostate; 45 mg/kg/day orally) of the same compound?
Its value is 422 ± 56 mg.

And the “prostate weight reduction compared with enzalutamide” value (prostate; all doses tested (5, 15, 45 mg/kg/day))?
Its value is “reduced prostate weights to a greater degree at all doses tested”.

And the DC50 (AR D891H)?
Its DC50 is 3.9 nM.
